Measured values from patent publication US6841533B1, “Conformationally constrained backbone cyclized interleukin-6 antagonists” (Peptor Limited, priority 1995, dated 2005).
Numbered stars: 1 amine (or outer) side, 2 acyl side, 3 side chain; on linkers, the order of the positions; unused ones are H or OH. Bridge positions count the residues as written; N and C are the ends. Square brackets hold non-standard residues; d marks the D form. Peptide text beside a SMILES is read from it. Ala(Nα-(CH2)3CO) = C[C@@H](C(=O)[*:2])N(CCCC(=O)[*:3])[*:1]; Ala(Nα-(CH2)3NH) = C[C@@H](C(=O)[*:2])N(CCCN[*:3])[*:1]

Experiments:
[1] = system: IL-6 mediated acute-phase response; assay: IL-6 mediated acute-phase response (turpentine model); format: in vivo, mice
Excerpt: The objective was to establish a simple first-line in-vivo model, for testing the activity of IL-6 inhibitors. The turpentine model was chosen based on the principal role that IL-6 plays in this inflammatory response.
Systemic and localized inflammation elicit a general reaction in the organism, known as the acute phase response, which includes fever, loss of body weight, hypoglycemia, and changes in the serum levels of several plasma proteins produced by the liver. IL-6 is an important mediator of the acute-phase reaction (see Heinrich et.al., Biochemistry J. 1 265:621, 1990 for a comprehensive review), together with IL-1 and TNF-α. It has been shown previously that sterile tissue damage caused by injection of turpentine induces an acute-phase reaction, and that IL-6 is an essential mediator of this response (Rokita et.al., Cytokine 5:454, 1993).
IL-6 knock-out (-/-) and matched wild-type (C57/Black; CB) mice were used. Sterile tissue damage was induced by subcutaneous injection of turpentine, 0.1 ml, into both hind limbs. IL-6 was determined in the serum by ELISA (QuantikineM, R&D). For liver acute-phase proteins, Fibrinogen was determined in citrated plasma, by the calcium method.
PTR 5045 (SEQ ID NO:75) was tested in this model in compare to the non-relevant control peptide PTR 4041 (SEQ ID NO:33) (Lys-GlyC2-Leu-Ile-Gln-Leu-Phe-GlyN3-Lys-Lys-NH2).

[2] = Metabolic stability in vitro against renal homogenate; format: in vitro ADME
Procedure: The special feature of the novel backbone cyclic peptide analogs is their metabolic stability as tested in vitro against degradation of the most aggressive enzyme mixture in the body (e.g., renal homogenate). PTR 5045 is stable under these conditions for up to 24 hours.

B16.F10.9 melanoma cells = conditions: 200 ng/ml IL-6 and 125 ng/ml sIL-6R, three days, FIG. 2
Excerpt: The F10.9 sub-line of B16 (murine melanoma) expresses gp130 but not IL-6R. Addition of human IL-6 and human IL-6R, or a chimera of IL-6/IL-6R results in differentiation which is associated with growth arrest of the cells. Inhibition of IL-6 results in continued growth. Since the end point of this assay is cell growth rather than cell death, this assay system was used primarily in order to differentiate between suspected toxic effects observed on B9 or T1165 cells, and true inhibition of IL-6 activity.
Evaluation of the results in this assay is possible using two methods. One method uses vital dyes for monitoring cell growth. The second method comprises visual observation of the cell morphology and establishing a cut off point based on the following observations:
Cells which are not treated with IL-6 create a monolayer that covers almost all the surface area. Treatment with IL-6 causes growth arrest and a morphological change: the cells become very narrow and elongated as compared to the more spread out shape of the non-treated cells.
Peptides were added to B16.F10.9 melanoma cells in the presence of 200 ng/ml IL-6 and 125 ng/ml sIL-6R. Incubation for three days.

[3] = molecular target: leukocyte inhibitory factor receptor (LIF-R); assay: cell-based or functional assay
[4] = mice, turpentine, 1 or 10 mg/kg of peptide

Compound | Mean weight loss % [1, 4] | Mean weight loss grams [1, 4] | reduction of the effect mediated by IL-6 on body weight during acute inflammation ([1]; versus control peptide PTR 4041) | time stable against degradation by renal homogenate [2] | concentration that fully blocks IL-6 activity (B16.F10.9 melanoma cells) | % Inhibition (relative to IL-6) of A375 cells, LIF + LIFR at 10 ng/ml [3]
CC(C)C[C@@H]1NC(=O)[C@H](C)N(C(=O)[C@H](Cc2ccccc2)NC(=O)[C@@H](CCCNC(=N)N)NC(=O)[C@H](CCCCN)NC(=O)[C@H](CCCNC(=N)N)NC(=O)[C@@H](N)Cc2c[nH]c3ccccc23)CCCC(=O)NCCCN([C@@H](C)C(N)=O)C(=O)[C@@H](Cc2ccc(O)cc2)NC(=O)[C@H](CCCNC(=N)N)NC1=O [PTR 5045, Trp-Arg-Lys-(D)Arg-Phe-AlaC3-Leu-Arg-(D)Tyr-AlaN3-NH2] (H-WRK[dR]F[Ala(Nα-(CH2)3CO)]LR[dY][Ala(Nα-(CH2)3NH)]-NH2; lactam 6-10) | −3.93% | −1.35 grams | reduces by about half | up to 24 hours | about 250 nM | –
leukemia inhibitory factor (LIF) (ligand) | – | – | – | – | – | 45%
